Measurements taken from patent US9284283B2, “Macrocyclic compounds for modulating IL-17” (ENSEMBLE THERAPEUTICS CORPORATION, priority 2012, dated 2016).

Target: T1, biotinylated human IL-17 (binding to IL17R/Fc) (Homo sapiens, UniProt Q16552)
T1 construct: purchased R&D Systems 317-ILB (IL-17, biotinylated); 177-IR (IL17R/Fc)
T1 sequence (Q16552 20-155 limits assumed): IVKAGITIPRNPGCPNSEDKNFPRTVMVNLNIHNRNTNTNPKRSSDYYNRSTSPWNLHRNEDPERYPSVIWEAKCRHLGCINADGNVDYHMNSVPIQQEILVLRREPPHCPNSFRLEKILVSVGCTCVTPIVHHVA
Assay: IL-17 competition ELISA II (captured IL17R/Fc, biotinylated IL-17)
Experimental: In this version, a high binding 96-well plate (Costar #9018) was coated with 20 nM of goat anti-human IgG (KPL 01-10-02) in PBS, 100 μL/well, for 30 min at 37° C. followed by 5 min at 4° C. The plate was then washed in PBST (PBS/0.05% Tween-20) on a plate washer, (BioTek ELx450) then blocked with protein-free blocking buffer (Thermo Scientific #37573) in 250 μL/well for 30 min on a shaker at room temperature, and then washed again. IL17R/Fc (R&D Systems #177-IR; 10 nM in PBST, 100 μL/well) was then added to all wells. The plate was then incubated for 30 minutes at room temperature on the shaker.
While the receptor capture step was underway, compound dilutions were prepared in PBST to a concentration of 1 μM in 1.5 mL tubes. After the receptor capture step, the plate was washed and 50 μL PBST was added to the wells in row B down to row H. Then, 62.5 μL of the 1 μM compound dilutions were added to the wells of row A. From row A, 12.5 μL of the compound solution was removed and added to row B with mixing and this process of 5-fold dilutions was continued, by row, to row G. One of the wells in row A received only PBST (62.5 μL) and this dilution series served as the no competitor control. Then, going up from row G to row A, 50 μL of b-IL-17 (biotinylated human IL-17, R&D Systems #317-ILB; 20 nM) was added to all wells. Row H received 50 μL of PBST and served as the blank row, i.e., no compound and no b-IL-17. The plate was then incubated for 30 minutes at room temperature on the shaker.
After the wash, 100 μL Streptavidin-Horseradish Peroxidase (SA-HRP) (KPL #14-30-00) at 25 ng/mL in PBST was added to each well in the plate and the plate incubated for 30 minutes at room temperature followed by wash and 100 μL SureBlue™ TMB (KPL #52-00-03). After sufficient color development (approx 3-6 minutes), the reaction was fixed by the addition of 100 μL/well 0.5 N HCl and absorbance was measured at 450 nm on a BioTek Synergy 2 plate reader. The absorbances of ‘no competitor’ control and blank control should not exceed 1.5 A.U. and 0.06 A.U., respectively.
Data was processed using BioAssay Enterprise v10.1.4 (CambridgeSoft) software. Linear OD λ450 were plotted against log concentration (x) and fitted to a 4-parameter logistic equation. IC50 was calculated using positive ‘no competitor’ control data as an upper limit and blank control as a lower limit in each assay.

SMILES	IC50 [nM]
CCC(F)(F)C(=O)NC(C(=O)Nc1ccc(CC2NC(=O)CC3(CCCC3)CC(=O)OCCCCCN(C)C(=O)CNC2=O)cc1)C1CCCCC1 (stereo not shown) [Compound 680]	100 to 1000
O=C1CC2(CCCC2)CC(=O)N[C@H](Cc2ccc(NC(=O)[C@@H](NC(=O)c3cccnc3)C3CCCCC3)cc2)C(=O)NCC#CCCCCCN1 [Compound 458]	1000 to 10000
COC(=O)N[C@H](C(=O)Nc1ccc(C[C@H]2NC(=O)CC3(CCCC3)CC(=O)N(C)CCOCCOCCNC2=O)cc1)C1CCCCC1 [Compound 624]	> 10000
O=C1CNC(=O)[C@H](Cc2ccc(NC(=O)[C@@H](Cc3ccccc3Cl)NC(=O)Cc3ccccc3)cc2)NC(=O)CC2(CCCC2)CC(=O)NCCCCCN1 [Compound 452]	1000 to 10000
CC(=O)N[C@@H](Cc1ccccc1Cl)C(=O)Nc1ccc(C[C@H]2NC(=O)CC3(CCCC3)CC(=O)N[C@H](C(=O)O)CCCCNC2=O)cc1 [Compound 456]	100 to 1000
O=C1CNC(=O)[C@@H](Cc2ccc(-n3c(C(F)(F)F)nc(Cc4ccccc4Cl)c3OC(=O)C(F)(F)F)cc2)NC(=O)CC2(CCCC2)CC(=O)NCCCCCN1 [Compound 440]	100 to 1000
C[C@H]1NC(=O)[C@@H](CCCNC(=O)[C@H](Cc2ccccc2Cl)NC(=O)Cc2ccc(F)cc2)NC(=O)CC2(CCCC2)CC(=O)NCCCCCNC1=O [Compound 607]	> 10000
C[C@H]1NC(=O)[C@@H](CCNC(=O)[C@H](Cc2ccccc2Cl)NC(=O)Cc2ccc(F)cc2)NC(=O)CC2(CCCC2)CC(=O)NCCCCCNC1=O [Compound 609]	> 10000
O=C1CC2(CCCC2)CC(=O)N[C@H](Cc2ccc(NC(=O)[C@H](Cc3ccccc3Cl)NC(=O)[C@H](O)c3ccccc3)cc2)C(=O)NCCCCCN1 [Compound 547]	100 to 1000
CN1CCOCCN(C)C(=O)[C@@H](Cc2cccnc2)NC(=O)[C@@H](Cc2ccc(NC(=O)[C@H](Cc3ccccc3Cl)NC(=O)C(F)(F)c3ccccc3)cc2)NC(=O)CC2(CCCC2)CC1=O [Compound 638]	< 100
CN1CCOCCOCCN(C)C(=O)[C@@H](Cc2ccc(NC(=O)[C@H](Cc3ccccc3Cl)NC(=O)Cc3ccccc3)cc2)NC(=O)CC2(CCCC2)CC1=O [Compound 589]	< 100
CN1CCNC(=O)CC2(CCCC2)CC(=O)N[C@H](Cc2ccc(NC(=O)[C@H](Cc3ccccc3Cl)NC(=O)Cc3cccc(O)c3)cc2)C(=O)NCC1 [Compound 467]	< 100
C[C@H]1NC(=O)[C@@H](Cc2ccc(NC(=O)[C@H](Cc3ccccc3Cl)NC(=O)Cc3ccc(F)cc3)cc2)NC(=O)CC2(CCCC2)CC(=O)N2CCN(CCNC1=O)CC2 [Compound 541]	< 100
O=C1CNC(=O)[C@@H](Cc2ccc(NC(=O)[C@H](Cc3ccccc3Cl)NCc3ccccc3)cc2)NC(=O)CC2(CCCC2)CC(=O)NCCCCCN1 [Compound 503]	1000 to 10000
C[C@H]1NC(=O)[C@@H](Cc2ccc(NC(=O)[C@H](Cc3ccccc3Cl)NC(=O)Cc3ccc(F)cc3)cc2)NC(=O)CC2(CC2)CC(=O)NCCCCCNC1=O [Compound 554]	< 100
NC(=O)CC[C@@H]1NC(=O)[C@@H](Cc2ccc(NC(=O)[C@H](Cc3ccccc3Cl)NC(=O)Cc3ccc(F)cc3)cc2)NC(=O)CC2(CCCC2)CC(=O)N[C@H](C(=O)O)CCCCNC1=O [Compound 651]	< 100
CC(=O)N[C@@H](Cc1ccccc1Cl)C(=O)Nc1ccc(C[C@H]2NC(=O)CC3(CCCC3)CC(=O)NCCCCCNC(=O)[C@@H](C)NC2=O)cc1 [Compound 468]	< 100
CN1CCOCCOCCNC(=O)[C@@H](Cc2ccc(NC(=O)[C@H](Cc3ccccc3Cl)NC(=O)[C@H](O)c3ccccc3)cc2)NC(=O)CC2(CCCC2)CC1=O [Compound 581]	< 100
COC(=O)[C@@H]1CCCCNC(=O)CNC(=O)[C@@H](Cc2ccc(NC(=O)[C@H](Cc3ccccc3Cl)NC(=O)NCc3ccccc3)cc2)NC(=O)CC2(CCCC2)CC(=O)N1 [Compound 459]	< 100
NCCCC[C@H]1NC(=O)[C@@H](Cc2ccc(NC(=O)[C@H](Cc3ccccc3Cl)NC(=O)Cc3ccccc3)cc2)NC(=O)CC2(CCCC2)CC(=O)NCCCCCNC1=O [Compound 432]	< 100
O=C1CC2(CCCC2)CC(=O)N[C@H](Cc2ccc(NC(=O)[C@H](Cc3ccccc3Cl)NC(=O)NCc3ccccc3)cc2)C(=O)NCCOCCOCCN1 [Compound 463]	< 100

More lines, now with the values ahead:

IC50 [nM]	SMILES
< 100	O=C1CC2(CCCC2)CC(=O)N[C@H](Cc2ccc(NC(=O)[C@H](Cc3ccccc3Cl)NC(=O)c3cccnc3)cc2)C(=O)N[C@@H](CO)C(=O)NCCCC[C@@H](C(=O)O)N1 [Compound 451]
< 100	O=C1CNC(=O)[C@@H](Cc2ccc(NC(=O)[C@@H](NC(=O)CC3CCCCC3)C3CCCCC3)cc2)NC(=O)CC2(CCCC2)CC(=O)NCCCCCN1 [Compound 395]
< 100	CN1CCCCCN(C)C(=O)[C@@H](CC(N)=O)NC(=O)[C@@H](Cc2ccc(NC(=O)[C@@H](NC(=O)C(F)(F)c3ccccc3)C3CCCCC3)cc2)NC(=O)CC2(CCCC2)CC1=O [Compound 670]
< 100	CC(=O)N[C@@H](Cc1ccccc1Cl)C(=O)Nc1ccc(C[C@H]2NC(=O)CC3(CCCC3)CC(=O)OCCCCCNC(=O)CNC2=O)cc1 [Compound 676]
< 100	CC(C)OC(=O)N[C@@H](Cc1ccccc1Cl)C(=O)Nc1ccc(C[C@H]2NC(=O)CC3(CCCC3)CC(=O)NCCOCCOCCNC2=O)cc1 [Compound 580]
< 100	O=C1CNC(=O)[C@@H](Cc2ccc(NC(=O)[C@@H](NC(=O)c3ccc(F)cc3)C3CCCCC3)cc2)NC(=O)CC2(CCCC2)CC(=O)NCCCCCN1 [Compound 403]
< 100	O=C1CC2(CCCC2)CC(=O)N[C@H](Cc2ccc(NC(=O)[C@H](Cc3ccccc3Cl)NC(=O)Cc3ccc(CO)cc3)cc2)C(=O)NC/C=C/CCCCCN1 [Compound 365]
< 100	C[C@H]1NC(=O)[C@@H](Cc2ccc(NC(=O)[C@H](Cc3ccccc3Cl)NC(=O)Cc3cccnc3)cc2)NC(=O)CC2(CCCC2)CC(=O)N(C)CCCCCN(C)C1=O [Compound 628]
< 100	C[C@H]1NC(=O)[C@@H](Cc2ccc(NC(=O)[C@@H](NC(=O)Cc3ccc(N(C)C)cc3)C3CCCCC3)cc2)NC(=O)CC2(CCCC2)CC(=O)N(C)CCOCCN(C)C1=O [Compound 603]
< 100	CC(=O)NC(C(=O)Nc1ccc(CC2NC(=O)CC3(CCCC3)CC(=O)OCCCCCN(C)C(=O)CNC2=O)cc1)C1CCCCC1 (stereo not shown) [Compound 681]
< 100	CC(C)OC(=O)N[C@@H](Cc1ccccc1Cl)C(=O)Nc1ccc(C[C@H]2NC(=O)CC3(CCCC3)CC(=O)NCCCCCNC(=O)[C@@H](C)NC2=O)cc1 [Compound 578]
< 100	O=C1CC2(CCCC2)CC(=O)N[C@H](Cc2ccc(NC(=O)[C@@H](NC(=O)C(F)(F)c3ccccc3)C3CCCCC3)cc2)C(=O)NCCOCCOCCN1 [Compound 595]
< 100	O=C1CC2(CCCC2)CC(=O)N[C@H](Cc2ccc(NC(=O)[C@H](Cc3ccccc3Cl)NC(=O)C3(c4ccc(F)cc4)CC3)cc2)C(=O)N[C@H](CO)C(=O)NCCCCCN1 [Compound 482]
< 100	O=C1CNC(=O)[C@@H](Cc2ccc(NC(=O)[C@H](Cc3ccccc3Cl)NC(=O)C(F)(F)c3ccccc3)cc2)NC(=O)CC2(CCCC2)CC(=O)OCCCCCN1 [Compound 674]
< 100	CC(c1ccccc1)C(NC(=O)C(F)(F)c1ccccc1)C(=O)Nc1ccc(C[C@H]2NC(=O)CC3(CCCC3)CC(=O)N(C)CCOCCOCCNC2=O)cc1 (stereo partly shown) [Compound 643]
< 100	O=C1CNC(=O)[C@@H](Cc2ccc(NC(=O)[C@@H](NC(=O)C(F)(F)c3ccccc3)C3CCCCC3)cc2)NC(=O)CC2(CCCC2)CC(=O)OCCCCCN1 [Compound 671]
< 100	O=C1CC2(CCCC2)CC(=O)N[C@H](Cc2ccc(NC(=O)[C@H](Cc3ccccc3Cl)NC(=O)Cc3ccc(CO)cc3)cc2)C(=O)NCCCCN1 [Compound 393]
< 100	CN1CCOCCOCCN(C)C(=O)[C@@H](Cc2ccc(NC(=O)[C@H](Cc3ccccc3Cl)NC(=O)C(F)(F)c3ccccc3)cc2)NC(=O)CC2(CCCC2)CC1=O [Compound 591]
< 100	CN1CCCCCN(C)C(=O)[C@@H](Cc2ccncc2)NC(=O)[C@@H](Cc2ccc(NC(=O)[C@H](Cc3ccccc3Cl)NC(=O)Cc3cccnc3)cc2)NC(=O)CC2(CCCC2)CC1=O [Compound 629]
